Laboratory results as given in US7635696B2, “Isoxazoline-indole derivatives with an improved antipsychotic and anxiolytic activity” (Janssen Pharmaceutica N.V., priority 2004, dated 2009).

Assays:
Human 5HT1A receptor = biological target: T1, Human 5HT1A receptor (Homo sapiens, UniProt P08908); experiment: Binding experiment for 5-HT1A receptor ([3H]8OHDPAT); conditions: transfected L929 cell membranes, [3H]8OHDPAT
T1 construct: expressed in transfected cells; host or cells: L929 cells (stably transfected)
T1 sequence (P08908 1-422): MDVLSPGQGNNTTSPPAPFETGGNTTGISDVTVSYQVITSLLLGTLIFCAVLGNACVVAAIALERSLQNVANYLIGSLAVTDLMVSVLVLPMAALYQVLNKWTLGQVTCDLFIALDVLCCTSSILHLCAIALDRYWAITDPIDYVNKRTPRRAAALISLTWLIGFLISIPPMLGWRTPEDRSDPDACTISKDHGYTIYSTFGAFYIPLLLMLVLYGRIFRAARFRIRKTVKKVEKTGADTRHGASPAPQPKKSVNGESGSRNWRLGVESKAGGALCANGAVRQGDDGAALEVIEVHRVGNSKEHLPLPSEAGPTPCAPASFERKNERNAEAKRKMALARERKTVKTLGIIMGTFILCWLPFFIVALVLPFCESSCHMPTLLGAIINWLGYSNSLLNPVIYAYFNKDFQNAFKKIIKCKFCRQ
Description: (§1) The interaction of the compounds of Formula (I) with dopamine-receptors, h5HT-transporter and h5HT1A receptor was assessed in in vitro radioligand binding experiments. In general, a low concentration of a radioligand with a high binding affinity for a particular receptor or transporter is incubated with a sample of a tissue preparation enriched in a particular receptor or transporter or with a preparation of cells expressing cloned human receptors in a buffered medium. During the incubation, the radioligand binds to the receptor or transporter. When equilibrium of binding is reached, the receptor bound radioactivity is separated from the non-bound radioactivity, and the receptor- or transporter-bound activity is counted. The interaction of the test compounds with the receptor is assessed in competition binding experiments. Various concentrations of the test compound are added to the incubation mixture containing the receptor- or transporter preparation and the radioligand. The test compound in proportion to its binding affinity and its concentration inhibits binding of the radioligand.
Human 5HT1A receptor-transfected L929 cells were collected by scraping into ice-cold Tris-HCl buffer (50 mM, pH 7.4). The suspension was centrifuged (23 500×g, 10 min, 4° C.) and pellets stored at −70° C. until required. They were then thawed and briefly homogenised using an Ultra-Turrax T25 homogeniser prior to dilution to an appropriate protein concentration optimised for specific and non-specific binding. [^3H]80HDPAT (NEN, specific activity 127 Ci/mmol) was diluted in Tris-HCl assay buffer containing CaCl2 (50 mM and 4 mM, respectively; pH 7.7) at a concentration of 5 nmol/L. Prepared radioligand (50 μl) was then incubated (30 min, 37° C.) with membrane preparations from L929 cells stably-transfected with the h5HT1A gene construct (400 μl) and with 50 μl of either the 10% DMSO control, spiroxatrine (10^−6 mol/L final concentration), or compound of interest. Membrane-bound activity was detected by filtration through a Packard Filtermate harvester onto Unifilterplates, washing with ice-cold Tris-HCl buffer (3×4 ml), followed by drying. Scintillation fluid was added and membranes were counted in a Topcount scintillation counter. % Specific bound and competition binding curves were calculated using S-Plus software (Insightful).

[1] = biological target: T2, Human Dopamine D3 receptor (Homo sapiens, UniProt P35462); experiment: Binding experiment for dopamine D3 receptor ([125I]Iodosulpride); conditions: transfected CHO cell membranes
T2 construct: expressed in transfected cells; host or cells: CHO cells
T2 sequence (P35462 whole entry): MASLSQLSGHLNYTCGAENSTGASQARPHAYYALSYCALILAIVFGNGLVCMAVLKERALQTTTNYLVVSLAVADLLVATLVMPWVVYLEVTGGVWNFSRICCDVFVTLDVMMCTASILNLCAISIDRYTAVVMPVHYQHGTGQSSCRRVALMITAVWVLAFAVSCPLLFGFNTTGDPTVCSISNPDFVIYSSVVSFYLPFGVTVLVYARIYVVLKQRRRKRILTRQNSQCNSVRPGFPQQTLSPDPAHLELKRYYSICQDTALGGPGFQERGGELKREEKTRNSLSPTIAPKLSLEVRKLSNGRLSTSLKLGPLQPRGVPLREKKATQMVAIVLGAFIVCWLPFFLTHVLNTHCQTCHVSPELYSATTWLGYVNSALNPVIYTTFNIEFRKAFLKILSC
Description: as §1
Human Dopamine D3 receptor-transfected CHO cells were collected by scraping into ice-cold Tris-HCl buffer (50 mM, pH 7.4). The suspension was centrifuged (23 500×g, 10 min, 4° C.) and pellets stored at −70° C. until required. They were then thawed and briefly homogenised using an Ultra-Turrax T25 homogeniser prior to dilution to an appropriate protein concentration optimised for specific and non-specific binding. [^125I]Iodosulpride (Amersham, specific activity 2000 Ci/mmol) was diluted in Tris-HCl assay buffer containing NaCl, CaCl2, MgCl2, KCl and BSA (50, 120, 2, 1, 5 mM, 0.1% respectively, adjusted to pH 7.7 with HCl) at a concentration of 2 nmol/L. Prepared radioligand (20 μl) was incubated (60 min, RT) and with 20 μl of either the 10% DMSO control, Risperidone (10^−6 mol/L final concentration), or compound of interest, then with membrane preparations (80 μl). Overnight incubation followed after addition of WGA-coated PVT SPA beads (250 μl; Amersham) and membrane-bound counts measured in a Wallac Microbeta. % Specific bound and competition binding curves were calculated using S-Plus software (Insightful).

[2] = biological target: T3, Human Dopamine D2L receptor (Homo sapiens, UniProt P14416); experiment: Binding experiment for dopamine D2 receptor ([3H]Spiperone); conditions: D2L-transfected CHO cell membranes
T3 construct: expressed in transfected cells; host or cells: CHO cells
T3 sequence (P14416 whole entry): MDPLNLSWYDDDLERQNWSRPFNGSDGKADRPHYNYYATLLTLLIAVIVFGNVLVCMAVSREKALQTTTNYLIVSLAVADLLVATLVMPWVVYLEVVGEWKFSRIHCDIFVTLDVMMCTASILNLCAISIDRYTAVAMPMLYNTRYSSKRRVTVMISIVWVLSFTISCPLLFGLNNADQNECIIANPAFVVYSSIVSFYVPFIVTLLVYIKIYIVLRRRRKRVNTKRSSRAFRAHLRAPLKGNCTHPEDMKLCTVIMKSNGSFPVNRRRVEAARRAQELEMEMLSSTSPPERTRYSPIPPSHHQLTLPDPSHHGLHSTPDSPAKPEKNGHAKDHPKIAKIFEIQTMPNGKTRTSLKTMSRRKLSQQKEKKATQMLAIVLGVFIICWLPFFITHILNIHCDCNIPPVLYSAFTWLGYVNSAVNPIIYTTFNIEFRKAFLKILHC
Description: as §1
Human Dopamine D2L receptor-transfected CHO cells were collected by scraping into ice-cold Tris-HCl buffer (50 mM, pH 7.4). The suspension was centrifuged (23 500×g, 10 min, 4° C.) and pellets stored at −70° C. until required. They were then thawed and briefly homogenised using an Ultra-Turrax T25 homogeniser prior to dilution to an appropriate protein concentration optimised for specific and non-specific binding. [^3H]Spiperone (NEN, specific activity ˜70 Ci/mmol) was diluted in Tris-HCl assay buffer containing NaCl, CaCl2, MgCl2, KCl (50, 120, 2, 1, and 5 mM respectively, adjusted to pH 7.7 with HCl) at a concentration of 2 nmol/L. Prepared radioligand (50 μl) was then incubated (30 min, 37° C.) with membrane preparations pre-diluted to an appropriate protein concentration (400 μl), and with 50 μl of either the 10% DMSO control, Butaclamol (10^−6 mol/L final concentration), or compound of interest. Membrane-bound activity was detected by filtration through a Packard Filtermate harvester onto Unifilterplates, washing with ice-cold Tris-HCl buffer (50 mM; pH8.0; 3×4 ml). Filters were allowed to dry before adding scintillation fluid and counting in a Topcount scintillation counter. % Specific bound and competition binding curves were calculated using S-Plus software (Insightful).

human 5HT transporter = biological target: T4, human 5HT transporter (Homo sapiens, UniProt P31645); experiment: Binding experiment for 5-HT transporter ([3H]Paroxetine); conditions: transfected HEK cell membranes, [3H]Paroxetine
T4 construct: host or cells: HEK cells
T4 sequence (P31645 whole entry): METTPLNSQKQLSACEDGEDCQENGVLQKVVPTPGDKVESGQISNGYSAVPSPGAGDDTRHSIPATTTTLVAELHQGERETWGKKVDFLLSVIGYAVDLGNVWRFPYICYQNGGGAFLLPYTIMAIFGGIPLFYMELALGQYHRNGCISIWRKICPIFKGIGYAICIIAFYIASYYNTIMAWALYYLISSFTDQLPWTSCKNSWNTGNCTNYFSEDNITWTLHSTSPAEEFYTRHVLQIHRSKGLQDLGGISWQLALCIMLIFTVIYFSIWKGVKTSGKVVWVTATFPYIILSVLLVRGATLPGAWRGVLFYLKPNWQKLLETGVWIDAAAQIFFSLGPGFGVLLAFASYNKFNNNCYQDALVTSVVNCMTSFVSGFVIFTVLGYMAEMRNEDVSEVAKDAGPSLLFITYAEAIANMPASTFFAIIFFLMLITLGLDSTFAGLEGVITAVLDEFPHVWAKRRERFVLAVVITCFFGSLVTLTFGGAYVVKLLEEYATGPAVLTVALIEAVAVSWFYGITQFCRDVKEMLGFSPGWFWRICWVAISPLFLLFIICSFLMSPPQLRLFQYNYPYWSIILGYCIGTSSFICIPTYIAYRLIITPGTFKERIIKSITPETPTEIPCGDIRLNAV
Description: as §1
Frozen human 5HT transporter-transfected HEK cells (Perkin Elmer, Brussels) were thawed and briefly homogenised using an Ultra-Turrax T25 homogeniser prior to dilution to an appropriate protein concentration optimised for specific and non-specific binding. [^3H]Paroxetine (NEN, specific activity 20 Ci/mmol) was diluted in Tris-HCl assay buffer containing NaCl and KCl (50 mM, 120 mM and 5 mM, respectively; pH 7.4) at a concentration of 5 nmol/L. Prepared radioligand (25 μl) was then incubated (60 min, 25° C.) with membrane preparations (200 μl) and with 25 μl of either 10% DMSO control, Inipramine (10^−6 mol/L final concentration), or compound of interest. Membrane-bound activity was detected by filtration through a Packard Filtermate harvester onto Unifilterplates pre-soaked in 0.1% PEI, washing with ice-cold assay buffer (3×4 ml). Filters were dried prior to addition of scintillation fluid and then counting in a Topcount scintillation counter. % Specific bound and competition binding curves were calculated using S-Plus software (Insightful).

| SMILES | pIC50 5-HT1A (Human 5HT1A receptor) | pIC50 D3 [1] | pIC50 D2 [2] | pIC50 5HTT (human 5HT transporter) |
| --- | --- | --- | --- | --- |
| COc1cc2c(cc1OC)C1=NOC(CNCCCc3c[nH]c4ccc(F)cc34)C1CO2 (single isomer, unassigned) [Compound 4] | 8.6 | 6.7 | 6.1 | 7.8 |
| COc1cc2c(cc1OC)C1=NOC(CNCCCc3c[nH]c4ccc(F)cc34)C1CO2 (single isomer, unassigned) [Compound 5] | >9 | 7.0 | 6.6 | 7.2 |
| COc1cc2c(cc1OC)C1=NOC(CN3CC=C(c4c[nH]c5ccccc45)CC3)C1CO2 (single isomer, unassigned) [Compound 6] | 6.6 | 6.2 | <6 | 7.1 |
| COc1cc2c(cc1OC)C1=NOC(CN3CCC(c4c[nH]c5ccc(F)cc45)CC3)C1CO2 (single isomer, unassigned) [Compound 11] | 8.9 | 7.2 | 7.2 | 6.9 |
| COc1cc2c(cc1OC)C1=NOC(CN3CC=C(c4c[nH]c5ccc(F)cc45)CC3)C1CO2 (single isomer, unassigned) [Compound 12] | 7.6 | 7.3 | 6.5 | 8.0 |
| COc1cc2c(cc1OC)C1=NOC(CN3CC=C(c4c[nH]c5cccc(F)c45)CC3)C1CO2 (single isomer, unassigned) [Compound 13] | 8.7 | 6.8 | 6.2 | 7.7 |
| COc1cc2c(cc1OC)C1=NOC(CN3CC=C(c4c[nH]c5ccccc45)CC3)C1CO2 (single isomer, unassigned) [Compound 14] | 8.3 | 6.5 | 6.8 | 7.5 |
| COc1cc2c(cc1OC)C1=NOC(CN3CCC(c4c[nH]c5ccc(F)cc45)CC3)C1CO2 (single isomer, unassigned) [Compound 15] | 7.2 | 6.4 | 6.1 | 7.1 |
| COc1cc2c(cc1OC)C1=NOC(CN3CC=C(c4c[nH]c5cccc(F)c45)CC3)C1CO2 (single isomer, unassigned) [Compound 16] | 7.1 | 6.5 | 6.0 | 6.9 |
| Fc1ccc2[nH]cc(C3=CCN(CC4ON=C5c6cc7c(cc6OCC54)OCCO7)CC3)c2c1 (single isomer, unassigned) [Compound 28] | 8.6 | 6.2 | 6.3 | 7.8 |
| Fc1ccc2[nH]cc(C3CCN(CC4ON=C5c6cc7c(cc6OCC54)OCCO7)CC3)c2c1 (single isomer, unassigned) [Compound 29] | 8.8 | 6.5 | 6.6 | 6.9 |
